Experimental data reported in the NIST ThermoML archive (doi:10.1016/j.tca.2005.04.002).
± gives the expanded uncertainty stated by the source.

Assay: mn = molality of the nth substance listed, in mol/kg
Details: 298.15 K; 101.33 kPa; Liquid; Calvet calorimetry; m1 = 0.1

Compound | molar enthalpy of solution [kcal/mol]
NCC(=O)O [2-aminoacetic acid] + O | 3.38 ± 0.0526
C[C@H](N)C(=O)O [(S)-2-aminopropanoic acid] + O | 1.86 ± 0.0359
N[C@@H](CO)C(=O)O [L-serine] + O | 2.69 ± 0.0454
